The target in the experiment is T1, LRRK2 G2019S mutant kinase (Homo sapiens, UniProt Q5S007, G2019S).
T1 construct: GST; purchased Invitrogen PV4882
T1 sequence (Q5S007 whole entry G2019S): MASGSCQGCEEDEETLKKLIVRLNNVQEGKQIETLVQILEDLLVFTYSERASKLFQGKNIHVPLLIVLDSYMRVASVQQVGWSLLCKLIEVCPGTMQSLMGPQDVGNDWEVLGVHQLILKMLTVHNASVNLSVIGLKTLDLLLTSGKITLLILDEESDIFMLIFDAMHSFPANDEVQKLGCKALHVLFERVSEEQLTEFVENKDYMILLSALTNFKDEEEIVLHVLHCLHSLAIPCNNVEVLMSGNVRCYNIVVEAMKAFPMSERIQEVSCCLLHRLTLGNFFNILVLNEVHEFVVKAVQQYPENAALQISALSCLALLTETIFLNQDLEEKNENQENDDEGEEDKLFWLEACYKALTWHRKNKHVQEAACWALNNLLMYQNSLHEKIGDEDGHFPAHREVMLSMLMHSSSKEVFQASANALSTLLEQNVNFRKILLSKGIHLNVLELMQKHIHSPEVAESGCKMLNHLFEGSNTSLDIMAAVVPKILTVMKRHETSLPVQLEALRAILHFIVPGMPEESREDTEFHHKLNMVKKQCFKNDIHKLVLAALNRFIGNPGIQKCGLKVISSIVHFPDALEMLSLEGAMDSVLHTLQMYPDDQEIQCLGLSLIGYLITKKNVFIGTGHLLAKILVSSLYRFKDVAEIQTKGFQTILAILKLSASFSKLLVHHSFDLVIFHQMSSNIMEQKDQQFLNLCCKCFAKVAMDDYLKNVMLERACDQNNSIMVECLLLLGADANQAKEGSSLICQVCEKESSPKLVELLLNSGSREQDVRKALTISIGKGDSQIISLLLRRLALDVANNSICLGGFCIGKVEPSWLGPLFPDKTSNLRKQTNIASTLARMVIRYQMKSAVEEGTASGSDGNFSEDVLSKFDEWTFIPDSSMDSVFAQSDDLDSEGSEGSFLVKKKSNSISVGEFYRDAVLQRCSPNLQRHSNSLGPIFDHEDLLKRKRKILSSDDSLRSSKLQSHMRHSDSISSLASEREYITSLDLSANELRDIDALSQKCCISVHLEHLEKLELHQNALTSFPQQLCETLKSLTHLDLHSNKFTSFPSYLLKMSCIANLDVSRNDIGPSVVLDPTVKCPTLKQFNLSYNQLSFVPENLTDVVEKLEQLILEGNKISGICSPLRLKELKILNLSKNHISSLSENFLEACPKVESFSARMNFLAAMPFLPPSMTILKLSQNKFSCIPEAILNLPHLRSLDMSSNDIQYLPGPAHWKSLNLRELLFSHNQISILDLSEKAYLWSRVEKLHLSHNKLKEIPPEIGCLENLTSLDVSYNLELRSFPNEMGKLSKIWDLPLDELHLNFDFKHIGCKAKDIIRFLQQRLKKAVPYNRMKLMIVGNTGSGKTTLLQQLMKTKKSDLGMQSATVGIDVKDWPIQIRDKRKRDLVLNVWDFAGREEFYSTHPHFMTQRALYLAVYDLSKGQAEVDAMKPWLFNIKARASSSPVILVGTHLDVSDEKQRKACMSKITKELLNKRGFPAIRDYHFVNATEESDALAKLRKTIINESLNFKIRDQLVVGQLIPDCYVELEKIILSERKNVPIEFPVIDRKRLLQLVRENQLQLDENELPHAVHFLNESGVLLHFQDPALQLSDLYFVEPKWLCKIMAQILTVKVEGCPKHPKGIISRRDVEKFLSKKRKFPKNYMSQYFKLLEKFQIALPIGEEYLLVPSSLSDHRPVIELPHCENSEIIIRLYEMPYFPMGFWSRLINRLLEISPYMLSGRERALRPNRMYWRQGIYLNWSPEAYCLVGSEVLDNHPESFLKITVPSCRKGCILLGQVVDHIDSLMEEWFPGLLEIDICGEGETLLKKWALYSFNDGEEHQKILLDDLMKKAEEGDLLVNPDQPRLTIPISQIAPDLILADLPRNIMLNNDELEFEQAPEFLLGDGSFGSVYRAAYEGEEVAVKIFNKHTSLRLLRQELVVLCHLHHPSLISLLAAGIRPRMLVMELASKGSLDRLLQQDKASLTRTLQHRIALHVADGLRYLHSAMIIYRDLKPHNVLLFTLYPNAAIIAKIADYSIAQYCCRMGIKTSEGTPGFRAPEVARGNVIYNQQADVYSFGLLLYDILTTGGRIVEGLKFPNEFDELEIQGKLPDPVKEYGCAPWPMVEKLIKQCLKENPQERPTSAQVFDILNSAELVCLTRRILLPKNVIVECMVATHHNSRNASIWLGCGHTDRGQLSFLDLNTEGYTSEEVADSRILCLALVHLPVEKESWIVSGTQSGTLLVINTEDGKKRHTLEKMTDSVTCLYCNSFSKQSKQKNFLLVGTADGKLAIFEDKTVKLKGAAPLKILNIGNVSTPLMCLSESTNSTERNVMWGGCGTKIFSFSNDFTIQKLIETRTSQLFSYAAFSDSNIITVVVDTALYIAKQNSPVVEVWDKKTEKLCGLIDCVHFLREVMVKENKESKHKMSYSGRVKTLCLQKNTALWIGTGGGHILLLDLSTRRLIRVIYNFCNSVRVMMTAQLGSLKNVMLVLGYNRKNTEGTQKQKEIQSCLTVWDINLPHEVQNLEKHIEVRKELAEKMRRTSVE
In words: LRRK2 G2019S LanthaScreen TR-FRET kinase assay. Format: biochemical. The following applies: LRRK2 G2019S GST-tagged protein, 100 μM ATP, LRRKtide substrate; read-out: IC50 (potency). The gist of the method: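 GST-tagged enzyme with 75 nM fluorescein-ERM (LRRKtide) substrate, 100 μM ATP, 2 mM DTT, 1% DMSO final; 1 h at room temperature. Stopped with EDTA and Tb-anti-pERM antibody, 30 min, then TR-FRET read (ex 340, em 520/495 nm); IC50 and maximal inhibition derived.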
For orientation: IC50 means the point on the concentration scale where inhibition reaches its midpoint. Consider `CC1(C)CC(=O)c2c(SC3CCCC3)sc(-c3ccn(C(=O)c4ccc(Cl)nc4)n3)c2C1` [Example 80, 1-{1-[(6-Chloropyridin-3-yl)carbonyl]-1H-pyrazol-3-yl}-3-(cyclopentylsulfanyl)-6,6-dimethyl-6,7-dihydro-2-benzothiophen-4(5H)-one], for which the IC50 came out at 570 nM. For the compound `CC1(C)CC(=O)c2c(SC3CCCC3)sc(-c3ccn(C(=O)c4ccc(F)cc4)n3)c2C1` [Example 81, 3-(Cyclopentylsulfanyl)-1-{1-[(4-fluorophenyl)carbonyl]-1H-pyrazol-3-yl}-6,6-dimethyl-6,7-dihydro-2-benzothiophen-4(5H)-one], the IC50 is 970 nM. As for `COc1ccc(C(=O)n2ccc(-c3sc(SC4CCCC4)c4c3CC(C)(C)CC4=O)n2)cc1` [Example 82, 3-(Cyclopentylsulfanyl)-1-{1-[(4-methoxyphenyl)carbonyl]-1H-pyrazol-3-yl}-6,6-dimethyl-6,7-dihydro-2-benzothiophen-4(5H)-one], the figure is 3400 nM; as for `CC1(C)CC(=O)c2c(SC3CCCC3)sc(-c3ccn(C(=O)C4CCCCC4)n3)c2C1` [Example 83, 1-[1-(Cyclohexylcarbonyl)-1H-pyrazol-3-yl]-3-(cyclopentylsulfanyl)-6,6-dimethyl-6,7-dihydro-2-benzothiophen-4(5H)-one], 4000 nM; as for `CC1(C)CC(=O)c2c(SC3CCCC3)sc(-c3ccn(C(=O)c4ccc(F)c(F)c4)n3)c2C1` [Example 84, 3-(Cyclopentylsulfanyl)-1-{1-[(3,4-difluorophenyl)carbonyl]-1H-pyrazol-3-yl}-6,6-dimethyl-6,7-dihydro-2-benzothiophen-4(5H)-one], 400 nM. For `CSc1sc(-c2ccn(C(=O)OC(C)(C)C)n2)c2c1C(=O)CCC2` [Example 85, tert-Butyl 3-[3-(methylsulfanyl)-4-oxo-4,5,6,7-tetrahydro-2-benzothiophen-1-yl]-1H-pyrazole-1-carboxylate], the half-inhibitory concentration (IC50) was 1100 nM. Next, `O=C1CCCc2c(-c3ccn(C(=O)Nc4ccc(Cl)cc4)n3)sc(SC3CCCC3)c21` [Example 86, N-(4-chlorophenyl)-3-[3-(cyclopentylsulfanyl)-4-oxo-4,5,6,7-tetrahydro-2-benzothiophen-1-yl]-1H-pyrazole-1-carboxamide]: 66 nM; `N#Cc1ccc(NC(=O)n2ccc(-c3sc(NC4CCCC4)c4c3CCCC4=O)n2)cc1` [Example 87, N-(4-cyanophenyl)-3-[3-(cyclopentylamino)-4-oxo-4,5,6,7-tetrahydro-2-benzothiophen-1-yl]-1H-pyrazole-1-carboxamide]: 330 nM.

With `CSc1sc(-c2cc(C)[nH]n2)c2c1C(=O)CC(C)(C)C2` [Example 88, 6,6-Dimethyl-1-(5-methyl-1H-pyrazol-3-yl)-3-(methylsulfanyl)-6,7-dihydro-2-benzothiophen-4(5H)-one], the half-maximal inhibitory concentration (IC50) is 1400 nM.

Take `CSc1sc(-c2cc(C3CC3)[nH]n2)c2c1C(=O)CC(C)(C)C2` [Example 89, 1-(5-Cyclopropyl-1H-pyrazol-3-yl)-6,6-dimethyl-3-(methylsulfanyl)-6,7-dihydro-2-benzothiophen-4(5H)-one]: the IC50 was 470 nM. `CCc1cc(-c2sc(SC)c3c2CC(C)(C)CC3=O)n[nH]1` [Example 90, 1-(5-Ethyl-1H-pyrazol-3-yl)-6,6-dimethyl-3-(methylsulfanyl)-6,7-dihydro-2-benzothiophen-4(5H)-one]: the IC50 was determined as 450 nM. With `CSc1sc(-c2cc[nH]n2)c2c1C(=O)C(C)CC2` (stereo not shown) [Example 91, 5-Methyl-3-(methylsulfanyl)-1-(1H-pyrazol-3-yl)-6,7-dihydro-2-benzothiophen-4(5H)-one], the 50% inhibitory concentration (IC50) came out at 150 nM.

For the compound `CCCC1CCc2c(-c3cc[nH]n3)sc(SC)c2C1=O` (stereo not shown) [Example 92, 3-(Methylsulfanyl)-5-propyl-1-(1H-pyrazol-3-yl)-6,7-dihydro-2-benzothiophen-4(5H)-one], the IC50 worked out at 310 nM.

For the origin of these results see patent US20130338106A1, “COMPOUNDS INHIBITING LEUCINE-RICH REPEAT KINASE ENZYME ACTIVITY” (priority 2011, published 2013).
